# Laboratory results reported in patent publication US8648045B2, “VDAC1 compositions and methods of use thereof for regulating apoptosis” (Ben Gurion University of the Negev Research and Development …, priority 2005, dated 2014).
# What was measured:
# [1] = test system: U937 cells; assay: Apoptotic cell death of U937 cells transfected with native or mutated mVDAC1, with/without RuR (acridine orange/ethidium bromide staining); assay type: cell-based, human
# Description: Logarithmically-growing U937 cells were resuspended in RPMI 1640 supplemented with 10% FCS, 100 U/ml penicillin and […] streptomycin at a concentration of 2.5×10^7 cells/ml. Cells were transfected to express rat or murine VDAC1 using the vectors pEGFP, pEGFP-VDAC1, pEGFP-E72Q-mVDAC1, pE-mVDAC1 or pE-E72Q-mVDAC1. Transfection of the U937 cells was performed by electroporation with a single pulse from a Bio-Rad micropulser II with a capacitance extender unit (200 V, […]). Cells were incubated on ice for 10 min before and after transfection, and then resuspended in 20 ml of RPMI 1640 supplemented with 10% FCS, 1 mM l-glutamine, 100 U/ml penicillin and […] streptomycin. […] GFP-positive cells were viewed under a microscope using a blue filter.
# Cells were plated at a density of 5.4×10^4 cells/cm^2 in 24-well plates, washed once with PBS and placed in serum-free medium. Cells were then incubated with or without RuR or Ru360. Cells were also treated with […] staurosporine (STS) to induce apoptosis and analyzed for viability 3, 5 and 7 hrs after STS addition. Treatments with curcumin (120 μM) or As2O3 (20 μM) were carried out for 48 hrs.
# Fifty six (56) hr after transfection, cells were exposed for 20 hr to RuR (1 μM) and cell viability was analyzed using acridine orange/ethidium bromide staining. In each independent experiment, approximately 250 cells were counted for each including early and late apoptotic cells. Data shown in FIG. 5 and Table 2 are the mean±SEM (n=3).
# [2] = biological target: T1, E72Q-mVDAC1 (Mus musculus, UniProt Q60932, E72Q); assay: VDAC channel recording in planar lipid bilayer (PLB); assay type: biochemical; details: PLB, 0 mV to −20 mV; all ten experiments
# T1 construct: made in house; host or cells: yeast (purified from mitochondria of yeast expressing mutated mVDAC1)
# T1 sequence (Q60932 14-296 E72Q limits assumed): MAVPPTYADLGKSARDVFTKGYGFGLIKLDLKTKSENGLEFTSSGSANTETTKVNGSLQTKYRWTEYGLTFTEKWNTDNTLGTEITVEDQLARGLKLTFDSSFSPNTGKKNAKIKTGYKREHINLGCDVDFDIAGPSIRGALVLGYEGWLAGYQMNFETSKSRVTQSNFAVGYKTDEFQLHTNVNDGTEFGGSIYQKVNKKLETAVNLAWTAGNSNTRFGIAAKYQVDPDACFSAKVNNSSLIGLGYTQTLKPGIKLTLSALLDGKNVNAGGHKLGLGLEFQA
# Description: (§1) Native and mutated mVDAC1 were extracted with lauryldimethylamine N-oxide (LDAO) from mitochondria isolated from yeast expressing various VDACs, and purified by chromatography on hydroxyapatite followed by carboxymethyl (CM)-cellulose where LDAO was replaced by β-OG (β-octylglucoside).
# (§2) Reconstitution of purified VDAC into a planar lipid bilayer (PLB) multi-channel current recording and data analyses were carried as follows. Briefly, PLB were prepared from soybean asolactin dissolved in n-decane (50 mg/ml) in a chamber containing 10 mM HEPES/KOH pH 7.4 and 0.5 or 1M NaCl (cis/trans). Only PLBs with a resistance greater than 100 GΩ were used. Purified VDAC (about 1 ng) was added to the chamber defined as the cis side. After one or a few channels inserted into the PLB, excess protein was removed by perfusion of the cis chamber with 20 volumes of a solution (with the same composition as before perfusion), in order to prevent further protein incorporation. Currents were recorded under voltage-clamp mode using a Bilayer Clamp amplifier (Warner Instrument, USA). The currents were measured with respect to the trans side of the membrane (ground). The currents were low-pass filtered at 1 kHz, using a Bessal filter (Frequency Devices, USA) and digitized on-line using a Digidata 1200 interface board and pCLAMP 6 software (Axon Instruments). Sigma Plot 2000 scientific software was used for data analyses. Experiments were performed at 23-25° C.
# (§3) FIG. 1A: Purified recombinant native or E72Q-mutated mVDAC1 was reconstituted into a PLB (planar lipid bilayer) in symmetrical solutions of 0.5 M NaCl. Currents through VDAC1 channel in response to a voltage step from zero to −20 mV were recorded before and 5 min after the addition of HK-I (28.6 mU/ml). The dashed lines indicate the zero-current level. […] FIG. 1C: Cytochrome c release was assayed, using a monoclonal anti-cytochrome c antibody, in the absence or the presence of HK-I (1 U/ml), chymotrypsin-treated HK-I (1 U/ml) or CsA (10 micro M).
# (§4) RuR, known to interact with several Ca^2+ binding proteins and to inhibit Ca^2+ transport in mitochondria, inhibited channel activity of native but not of E72Q-mutated VDAC1 (FIG. 5E). Purified recombinant native and E72Q-mVDAC1 variant were reconstituted into a planar lipid bilayer (PLB) and the currents produced in response to voltages stepped from a holding potential of 0 mV to −20 mV were recorded. […] The level of inhibition calculated from […] different experiments was 89.2±2.8% (mean±SD, n=9). In contrast, the channel activity of E72Q-mVDAC1 was not inhibited by RuR in all ten experiments.
# [3] = biological target: T2, recombinant native mVDAC1 (Mus musculus, UniProt Q60932); assay: as above; assay type: biochemical; details: RuR; PLB, voltage stepped 0 mV to −20 mV; mean±SD, n=9
# T2 construct: made in house; host or cells: yeast (purified from mitochondria of yeast expressing mVDAC1)
# T2 sequence (Q60932 14-296 limits assumed): as the sequence (Q60932 14-296 E72Q limits assumed) above, with Q59E counted along it
# Description: as §1, §2, §3, §4
# [4] = biological target: T3, mitochondrial bound HK-I (Rattus norvegicus, UniProt P05708); assay: Detachment of mitochondria-bound HK-I; assay type: biochemical; details: rat brain mitochondria; HK-I activity in the supernatant
# T3 construct: from tissue; host or cells: rat brain mitochondria
# T3 sequence (P05708 1-918): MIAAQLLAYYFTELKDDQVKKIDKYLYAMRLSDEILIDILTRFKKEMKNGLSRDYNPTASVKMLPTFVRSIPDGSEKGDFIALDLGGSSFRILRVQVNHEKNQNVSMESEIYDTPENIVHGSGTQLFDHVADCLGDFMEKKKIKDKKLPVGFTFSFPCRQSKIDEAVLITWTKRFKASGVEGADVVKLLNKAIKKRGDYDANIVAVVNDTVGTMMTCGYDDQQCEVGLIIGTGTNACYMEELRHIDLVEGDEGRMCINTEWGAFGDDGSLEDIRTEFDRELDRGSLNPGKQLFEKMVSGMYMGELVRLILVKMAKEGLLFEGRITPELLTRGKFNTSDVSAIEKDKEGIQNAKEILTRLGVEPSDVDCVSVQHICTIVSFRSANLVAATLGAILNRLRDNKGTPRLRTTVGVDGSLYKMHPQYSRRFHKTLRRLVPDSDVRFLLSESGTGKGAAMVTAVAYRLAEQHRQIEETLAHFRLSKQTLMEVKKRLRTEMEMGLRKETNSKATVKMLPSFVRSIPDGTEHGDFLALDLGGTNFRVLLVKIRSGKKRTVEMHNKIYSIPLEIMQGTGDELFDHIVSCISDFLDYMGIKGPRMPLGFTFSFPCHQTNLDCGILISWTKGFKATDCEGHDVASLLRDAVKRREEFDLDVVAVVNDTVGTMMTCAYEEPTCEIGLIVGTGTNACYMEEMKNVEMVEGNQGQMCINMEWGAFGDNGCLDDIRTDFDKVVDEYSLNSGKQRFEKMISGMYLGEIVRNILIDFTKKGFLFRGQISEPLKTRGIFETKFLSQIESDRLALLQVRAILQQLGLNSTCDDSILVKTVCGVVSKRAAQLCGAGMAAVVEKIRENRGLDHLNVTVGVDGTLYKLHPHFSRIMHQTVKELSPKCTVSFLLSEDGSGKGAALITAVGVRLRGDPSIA
# [5] = test system: permeability transition pore (PTP); assay: PTP opening monitored by Ca2+ accumulation and mitochondrial swelling; assay type: biochemical, rat; details: LP1 0.1 mM or 0.3 mM; brain HK-I 0.25 U/ml pre-incubated 10 min with LP1
# Description: Ca^2+ uptake by freshly prepared rat liver mitochondria (0.5 mg/ml) was assayed for 1 to 20 minutes at 30° C. in the presence of 225 mM mannitol, 75 mM sucrose, 120 μM CaCl2 (containing 3×10^4 cpm/nmol [^45Ca^2+]), 5 mM HEPES/KOH, 5 mM succinate and 0.1 mM Pi, pH 7.0. Uptake of ^45Ca^2+ was terminated by rapid Millipore filtration followed by a wash with 5 ml of 150 mM KCl.
# Ca^2+-induced mitochondria large amplitude swelling was assayed in freshly-prepared mitochondria under the same conditions as for Ca^2+ accumulation, except that the temperature was 24° C. Cyclosporine A (CsA)-sensitive mitochondrial swelling was initiated upon addition of Ca^2+ (0.2 mM) to the sample. Absorbance changes at 520 nm were monitored every 15-20 sec with an Ultraspec 2100 spectrophotometer.
# The failure of non-binding species of HK, such as yeast HK, or trypsin- or chymotrypsin-treated HK-I (FIG. 2D) to prevent PTP opening, confirmed the specificity of the HK-I effect, and of the requirement of the HK-I N-terminal region for its interaction with VDAC.
# Mitochondrial swelling was assayed in the absence (control ●) or the presence of HK-I (gray ●) and in presence HK-I pre-incubated with peptide LP1. Mitochondrial swelling was assayed as in FIG. 2 in the absence and the presence of peptide LP1 (0.1 mM or 0.3 mM), brain HK-I (0.25 U/ml) or with HK-I pre-incubated for 10 min with LP1. […]
detachment of mitochondria-bound HK-I [4],Compound,"Apoptotic cells, % +RuR ([1]; Control (non-transfected) U937 cells, RuR 1 μM) [%]",effect on apoptotic death in control or plasmid-transfected cells ([1]; RuR),"protective effect of RuR on VDAC1 over-expression-induced cell death ([1]; cells expressing E72Q-mVDAC1, E72Q-mVDAC1-GFP or E65Q-mVDAC1)",increase in the total level of VDAC1 protein ([1]; cells expressing native mVDAC1 exposed to RuR),"protection against apoptotic cell death ([1]; cells over-expressing VDAC1 or VDAC1-GFP, 1 μM RuR for 18 hr or 5 μM RuR for 5 hr)",inhibition of channel activity by RuR [2],level of inhibition of channel activity [3] [%],effect on HK-I prevention of PTP opening [5]
,"N.N.N.N.N.N.N.N.N.N.N.N.N.N.[Cl-].[Cl-].[Cl-].[Cl-].[Cl-].[Cl-].[O-2].[O-2].[Ru+3].[Ru+3].[Ru+4] [RuR, ruthenium red]",9.1 ± 2.1,had no effect or even slightly increased apoptotic death,not observed,over 5 fold,64-72%,not inhibited,89.2±2.8,
able to release mitochondrial bound HK-I,"WTEYGLTFTEKWNTD [Peptide LP1, 15 amino acid peptide derived from the first cytosolic β-loop of VDAC1, amino acids 63-78]",,,,,,,,eliminates the HK-I prevention of PTP opening
